The source of these data is patent US7740775B2, “Method for the production of particles” (priority 2001, dated 2010).

The data set is described as follows: Particle size of the isolated crystalline product observed under a microscope.
Where [1] appears, read: two-stage mixing with two HFC 134A streams (FIG. 6 nozzle), no surfactant.
Where [2] appears, read: two-stage mixing, co-precipitation of salicylic acid (20% w/v) and adipic acid (3% w/v) from acetone.

A value given as a limit tells only on which side of the number the result lay.

Take `O=C(O)CCCCC(=O)O` [adipic acid, hexanedioic acid]: the particle size range (comparative single-stage mixing with one HFC 134A stream, no surfactant) is 20-100 microns; the particle size range (single-stage mixing, HFC 134A, 1% w/w Antorox B12 DF surfactant) is reported as 20-200 microns; the particle size range under setting [1] is reported as 10-20 microns. The particle size reads like this: (single-stage mixing, HFC 134A, 1% w/w Brij 30 added to 10% w/v solution in ethanol) < 10 micron; under setting [2], “around 10 microns”.

In the case of `CC(=O)Nc1ccc(O)cc1` [paracetamol, N-acetyl-p-aminophenol, reference compound], for the setting “two-stage mixing, HFC 134A, 8% w/v in methanol with 1% w/w Brij 30”, the particle size is on record as < 3 micron.

For `O=C(O)c1ccccc1O` [salicylic acid], the particle size result under setting [2] is “below 3 microns”.

As to `O=[N+]([O-])[O-].[Ag+]` [silver nitrate], the particle size range under setting [1] was ≤ 3 microns.
